This is an account of results in patent US6329163A, “Assays for detecting β-secretase inhibition” (Elan Pharmaceuticals, Inc., priority 1998, dated 2001).

Bounds are passed on as bounds.

Experiment [1] has as its system APP. The experiment is described as follows: Proteolytic activity of β-secretase as a function of pH. The experiment is classed as biochemical, human.
Experiment [2] concerns the target T1, β-secretase (Homo sapiens, UniProt P56817).
T1 construct: purified from a natural source, such as human brain tissue or human 293 cells; endogenous in cells
The experiment in a line: β-secretase assay in the presence of common protease inhibitors (MBP-C125 cleavage, SW-192 ELISA). It counts as biochemical. As to conditions: for IC50: Max Conc not given. In general terms: ELISA stands for enzyme-linked immunosorbent assay.

Experiment [3] addresses T1, β-secretase. The experiment in a line: Binding of substantially purified β-secretase activity to immobilized lectins. As to conditions: immobilized lectin; Table 2. The procedure: Glycosylation of β-secretase has been investigated using various immobilized lectins, and ability of substantially purified β-secretase activity to bind to them was determined. […] A "-" sign signifies less than 20% binding, "+" between […] binding, "++" between 50-75% binding, and "+++" >75% binding.

T1 sequence (P56817 46-501): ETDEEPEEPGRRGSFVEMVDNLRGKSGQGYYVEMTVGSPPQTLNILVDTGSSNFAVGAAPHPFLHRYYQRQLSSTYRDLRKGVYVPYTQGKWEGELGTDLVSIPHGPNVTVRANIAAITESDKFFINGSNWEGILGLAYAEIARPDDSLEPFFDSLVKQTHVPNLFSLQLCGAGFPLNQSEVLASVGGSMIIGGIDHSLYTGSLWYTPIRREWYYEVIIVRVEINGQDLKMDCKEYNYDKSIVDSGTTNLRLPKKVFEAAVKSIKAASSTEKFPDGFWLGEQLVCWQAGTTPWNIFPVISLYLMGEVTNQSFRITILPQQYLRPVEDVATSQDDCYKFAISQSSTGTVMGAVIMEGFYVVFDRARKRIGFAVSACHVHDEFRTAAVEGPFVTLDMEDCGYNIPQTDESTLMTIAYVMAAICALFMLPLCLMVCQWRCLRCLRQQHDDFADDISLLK

For the molecule “β-secretase: enzyme which cleaves APP at the amino-terminus of β-amyloid peptide, purified from human 293 cells or human brain”, the “pH of peak proteolytic activity” value in experiment [1] is 5 to 5.5. Also, the proteolytic activity result in experiment [1] (pH 7.5 and above) is reported as “very low activity”. Regarding `CCCCC(NC(=O)C=[N+]=[N-])C(=O)OC` (stereo not drawn) [diazoacetylnorleucylmethyl ester], in experiment [2] (pH 5.5), the IC50 (usually the concentration that gives 50% inhibition) is > 5 mM. Consider `c1cnc2c(c1)ccc1cccnc12` [o-phenanthroline], for which the “inhibition of β-secretase activity (in words)” value in experiment [2] was “inhibits poorly”. Also, the IC50 in experiment [2] (pH 5.5) amounted to 7 mM. Turning to `O=c1oc(Cl)c(Cl)c2ccccc12` [3,4-dichloroisocoumarin], the inhibition – broadly, the drop in the measured response relative to a control, in per cent – at 500 µM in experiment [2] (Max Conc 0.5 mM, pH 5.5) is < 25%. As to `c1cnc2c(c1)ccc1ncccc12` [m-phenanthroline], the “inhibition of β-secretase activity (in words)” value in experiment [2] was “also does so”. In experiment [2] (pH 5.5), the 50% inhibitory concentration (IC50) amounted to 7 mM.

B1: peanut (PNA): lectin (protein, UniProt P02872 24-273, looked up)
Galactose-binding lectin: AETVSFNFNSFSEGNPAINFQGDVTVLSNGNIQLTNLNKVNSVGRVLYAMPVRIWSSATGNVASFLTSFSFEMKDIKDYDPADGIIFFIAPEDTQIPAGSIGGGTLGVSDTKGAGHFVGVEFDTYSNSEYNDPPTDHVGIDVNSVDSVKTVPWNSVSGAVVKVTVIYDSSTKTLSVAVTNDNGDITTIAQVVDLKAKLPERVKFGFSASGSLGGRQIHLIRSWSFTSTLITTTRRSIDNNEKKIMNMASA
Take B1: the “β-Secretase Binding” value in experiment [3] is on record as “+ (between 24-40% binding)”.
